{
  "source": "patent US20140127705A1",
  "about": "“METHOD FOR SCREENING SUBSTANCES HAVING WEIGHT-REGULATING ACTION” (priority 2011, published 2014)",
  "tested_on": "3T3-L1 cells",
  "assay": "Induction of adipocyte differentiation in 3T3-L1 cells, Oil Red O staining",
  "format": "cell-based",
  "settings": "10 μM LS-102 added at induction of differentiation (IBMX, dexamethasone, insulin) and again at the medium change, DMSO control, microscope (FIG. 5)",
  "experimental": "3T3-L1 cells were cultured for 3 days after reaching confluence in DMEM (10% FBS, High Glucose). Differentiation was induced by adding 500 μM IBMX, 1 μM dexamethasone and 5 μg/ml of insulin. 10 μM LS-102 (synoviolin ubiquitination activity inhibitor) or DMSO were added at the same time. After culturing for 3 days, the medium was replaced with medium containing 4 μg/ml of insulin followed by the addition of 10 μM LS-102 or DMSO. After again culturing for 3 days, the medium was replaced with DMEM (10% FES, High Glucose) followed by additionally culturing for 3 days. With respect to siRNA, 200 pmol of siRNA Syno770 was introduced using Lipofectamine 2000 two days prior to inducing differentiation.\nAfter washing the 3T3-L1 cells with PBS(−), the cells were fixed with 10% formalin. The cells were then washed with PBS(−) and transferred to 60% isopropanol. The cells were stained for 20 minutes with 18 mg/ml of Oil Red O/Isopropanol and then washed with 60% isopropanol and PBS(−) followed by observing with a microscope.",
  "data": [
    {"smiles": "CCNCCN(CC)c1nc(Nc2ccc3ncoc3c2)nc(N[C@@H](C)C2CCCCC2)n1", "note": "[LI102]", "values": [
      {"measurement": "number of differentiated adipocytes in comparison with the control", "result": "the number of differentiated adipocytes was lower in comparison with the control"}
    ]}
  ]
}
